Reference: ChEMBL document CHEMBL1153656, “Synthesis of homochiral potassium channel openers: role of the benzopyranyl 3-hydroxyl group in cromakalim and pyridine N-oxides in determining the biological activities of enantiomers” (Bioorg Med Chem Lett, 1992)

Species: Rattus norvegicus
Assay: The concentration of test substance producing half maximal reduction of the contraction evoked by 20 mM KCI in rat hepatic portal veins.
Format: functional

Question: How did the IC50 (Rattus norvegicus) turn out when CC1(C)Oc2ccc(C#N)cc2[C@H](c2cccc[n+]2[O-])[C@H]1O was run?
Answer: Its IC50 is 1200 nM.

Question: For CC1(C)C[C@H](N2CCCC2=O)c2cc(C#N)ccc2O1, which IC50 (Rattus norvegicus) is on record?
Answer: Its IC50 is 1150 nM.

Question: How did the IC50 (Rattus norvegicus) turn out when CC1(C)C[C@H](c2cccc[n+]2[O-])c2cc(C#N)ccc2O1 was run?
Answer: Its IC50 is 210 nM.

Question: With CC1(C)Oc2ccc(C#N)cc2[C@@H](c2cccc[n+]2[O-])[C@@H]1O as the compound, how does the IC50 (Rattus norvegicus) read?
Answer: The IC50 was 100 nM.

Question: How did the IC50 (Rattus norvegicus) turn out when CC1(C)C[C@@H](c2cccc[n+]2[O-])c2cc(C#N)ccc2O1 was run?
Answer: Its IC50 is 75 nM.

Question: With CC1(C)C[C@@H](N2CCCC2=O)c2cc(C#N)ccc2O1 as the compound, how does the IC50 (Rattus norvegicus) read?
Answer: Its IC50 is 520 nM.

Question: How did the IC50 turn out when CC1(C)Oc2ccc(C#N)cc2[C@H](N2CCCC2=O)[C@H]1O (single isomer, unassigned) [(-)-CROMAKALIM] was run?
Answer: The IC50 was 74 nM.

Question: Which IC50 does the source give for CC1(C)Oc2ccc(C#N)cc2[C@H](N2CCCC2=O)[C@H]1O [(-)-CROMAKALIM] here?
Answer: Its IC50 is 6600 nM.
